The values below come from patent publication US20070128217A1 (priority 2003, published 2007).

Test [1] deals with antibodies in sera from SARS patients (sera 1a, 1b, 2, 6, 37, 62, London, SARS-yellow, SARS-green). In kind it is binding, human. The arrangement: Binding of serum 6 to linear peptides of protein X1 of SARS-CoV Urbani / Binding of serum 37 to linear peptides of protein X1 of SARS-CoV Urbani / Binding of serum 6 to looped/cyclic peptide (PEPSCAN-ELISA) / Binding of serum 37 to looped/cyclic peptide (PEPSCAN-ELISA) / Binding of serum 37 to looped/cyclic peptides of protein X1 of SARS-CoV Urbani / Binding of serum 6 to linear peptides of protein X2 / Binding of serum 37 to linear peptides of protein X2 / Binding of serum 37 to looped/cyclic peptides of protein X2 of SARS-CoV Urbani / Binding of serum 6 to linear peptides of protein M of SARS-CoV Urbani / Binding of serum 37 to linear peptides of protein M of SARS-CoV Urbani / Binding of serum 6 to looped/cyclic peptides of protein M of SARS-CoV Urbani / Binding of serum 37 to looped/cyclic peptides of protein M of SARS-CoV Urbani / Binding of serum 6 to linear peptides of protein X3 of SARS-CoV Urbani / Binding of serum 37 to linear peptides of protein X3 of SARS-CoV Urbani / Binding of serum 37 to looped/cyclic peptides of protein X3 of SARS-CoV Urbani / Binding of serum 6 to linear peptides of protein X4 of SARS-CoV Urbani / Binding of serum 37 to linear peptides of protein X4 of SARS-CoV Urbani / Binding of serum 37 to looped/cyclic peptides of protein X4 of SARS-CoV Urbani / Binding of serum 6 to linear peptides of protein X5 of SARS-CoV Urbani / Binding of serum 37 to linear peptides of protein X5 of SARS-CoV Urbani / Binding of serum 37 to looped/cyclic peptides of protein X5 of SARS-CoV Urbani / Binding of serum 6 to linear peptides of protein N of SARS-CoV Urbani / Binding of serum 37 to linear peptides of protein N of SARS-CoV Urbani / Binding of serum 6 to linear peptide (PEPSCAN-ELISA) / Binding of serum 1a to looped/cyclic peptides of protein N of SARS-CoV Urbani / Binding of serum 1b to looped/cyclic peptides of protein N of SARS-CoV Urbani / Binding of serum 2 to looped/cyclic peptides of protein N of SARS-CoV Urbani / Binding of serum 6 to looped/cyclic peptides of protein N of SARS-CoV Urbani / Binding of serum 37 to looped/cyclic peptides of protein N of SARS-CoV Urbani / Binding of serum 62 to looped/cyclic peptides of protein N of SARS-CoV Urbani / Binding of serum London to looped/cyclic peptides of protein N of SARS-CoV Urbani / Binding of serum SARS-green to looped/cyclic peptides of protein N of SARS-CoV Urbani: unit not given here.

Test [2] relates to control sera (pooled serum of ten healthy LUMC hospital workers; commercial negative donor pooled serum from the Dutch bloodbank). In kind it is binding, human. On the set-up: Binding of Control serum LUMC to linear peptides / Binding of Control serum Blood-bank to linear peptides / Binding of Control serum LUMC to looped peptides / Binding of Control Serum Blood-Bank to Looped peptides / Binding of Control serum LUMC to linear peptides of the protein M of SARS-CoV Urbani / Binding of Control serum Blood-bank to linear peptides of the protein M of SARS-CoV Urbani / Binding of Control serum LUMC to looped peptides of the protein M of SARS-CoV Urbani / Binding of Control Serum Blood-Bank to Looped peptides of the protein M of SARS-CoV Urbani: unit not given here.

Test [3] has as its system rabbit serum obtained by immunizing a rabbit with the SARS-CoV strain Frankfurt 1. In kind it is binding. On the set-up: Binding of a rabbit serum to linear peptides / Binding of a rabbit serum to looped peptides / Rabbit serum linear peptides / Rabbit serum looped peptides / Binding of a rabbit serum to linear peptides of protein N of SARS-CoV Urbani (Rabbit serum linear peptides) / Binding of a rabbit serum to looped/cyclic peptides of protein N of SARS-CoV Urbani (Rabbit serum looped peptides): unit not given here.

With MLLQFAYSNRNRFLY, in test [1], the “Binding of serum 1a to linear peptides of protein M of SARS-CoV Urbani” value worked out at 0.6, the “Binding of serum 1a to looped/cyclic peptides of protein M of SARS-CoV Urbani” value came to 0.8, the “Binding of serum 1b to linear peptides of protein M of SARS-CoV Urbani” value came to 0.4 and the “Binding of serum 1b to looped/cyclic peptides of protein M of SARS-CoV Urbani” value came to 0.2. In test [1], the “Binding of serum 2 to linear peptides of protein M of SARS-CoV Urbani” value stood at 0.5, the “Binding of serum 2 to looped/cyclic peptides of protein M of SARS-CoV Urbani” value is 0.6, the “Binding of serum 6 to linear peptides of protein M of SARS-CoV Urbani” value is reported as 0.2 and the “Binding of serum 6 to looped/cyclic peptides of protein M of SARS-CoV Urbani” value turned out to be 1.3. Further, in test [1], the “Binding of serum 37 to linear peptides of protein M of SARS-CoV Urbani” value was 0.8, the “Binding of serum 37 to looped/cyclic peptides of protein M of SARS-CoV Urbani” value is 0.6, the “Binding of serum 62 to linear peptides of protein M of SARS-CoV Urbani” value worked out at 0.7 and the “Binding of serum 62 to looped/cyclic peptides of protein M of SARS-CoV Urbani” value is on record as 0.5. In test [1], the “Binding of serum London to linear peptides of protein M of SARS-CoV Urbani” value worked out at 0.2, the “Binding of serum London to looped/cyclic peptides of protein M of SARS-CoV Urbani” value was determined as 0.3, the “Binding of serum SARS-green to linear peptides of protein M of SARS-CoV Urbani” value is 0.2 and the “Binding of serum SARS-green to looped/cyclic peptides of protein M of SARS-CoV Urbani” value is reported as 0.2. Also, in test [1], the “Binding of serum SARS-yellow to linear peptides of protein M of SARS-CoV Urbani” value is listed as 0.1 and the “Binding of serum SARS-yellow to looped/cyclic peptides of protein M of SARS-CoV Urbani” value worked out at 0.3. For the same sequence, in test [2], the “Binding of Control Serum Blood-Bank to Looped peptides of the protein M of SARS-CoV Urbani” value was 0.4, the “Binding of Control serum Blood-bank to linear peptides of the protein M of SARS-CoV Urbani” value was 0.6, the “Binding of Control serum LUMC to linear peptides of the protein M of SARS-CoV Urbani” value came out at 0.3 and the “Binding of Control serum LUMC to looped peptides of the protein M of SARS-CoV Urbani” value turned out to be 0.5. For the same sequence, in test [3], the “Rabbit serum linear peptides” value is 0.5 and the “Rabbit serum looped peptides” value turned out to be 0.0.
MMSRRRLLACLCKHK: in test [1], the “Binding of serum 1a to looped/cyclic peptides of protein X2 of SARS-CoV Urbani” value came to 0.2, the “Binding of serum 1b to looped/cyclic peptides of protein X2 of SARS-CoV Urbani” value worked out at 0.2, the “Binding of serum 2 to looped/cyclic peptides of protein X2 of SARS-CoV Urbani” value came out at 0.1 and the “Binding of serum 6 to looped/cyclic peptides of protein X2 of SARS-CoV Urbani” value was found to be 0.0. In test [1], the “Binding of serum 37 to looped/cyclic peptides of protein X2 of SARS-CoV Urbani” value is 0.2, the “Binding of serum 62 to looped/cyclic peptides of protein X2 of SARS-CoV Urbani” value was found to be 0.3, the “Binding of serum London to looped/cyclic peptides of protein X2 of SARS-CoV Urbani” value was found to be 0.1 and the “Binding of serum SARS-green to looped/cyclic peptides of protein X2 of SARS-CoV Urbani” value was determined as 0.1. In test [1], the “Binding of serum SARS-yellow to looped/cyclic peptides of protein X2 of SARS-CoV Urbani” value amounted to 0.2; the “Recognition of the peptide by sera of SARS-CoV infected individuals, and form (linear, looped/cyclic) in which it is recognized” value is given as “recognized in linear form”. In test [2], the “Binding of Control Serum Blood-Bank to Looped peptides” value turned out to be 0.2, the “Binding of Control serum Blood-bank to linear peptides” value is 0.8, the “Binding of Control serum LUMC to linear peptides” value was 0.5 and the “Binding of Control serum LUMC to looped peptides” value was 0.2. In addition, in test [3], the “Binding of a rabbit serum to linear peptides” value was 0.4 and the “Binding of a rabbit serum to looped peptides” value worked out at 0.3.
Regarding MRCWLCWKCKSKNPL, in test [1], the “Binding of serum 1a to looped/cyclic peptide (PEPSCAN-ELISA)” value came out at 0.2, the “Binding of serum 1b to looped/cyclic peptide (PEPSCAN-ELISA)” value is 0.2, the “Binding of serum 2 to looped/cyclic peptide (PEPSCAN-ELISA)” value stood at 0.0 and the “Binding of serum 6 to looped/cyclic peptide (PEPSCAN-ELISA)” value stood at 0.1. In addition, in test [1], the “Binding of serum 37 to looped/cyclic peptide (PEPSCAN-ELISA)” value was determined as 0.2, the “Binding of serum 62 to looped/cyclic peptide (PEPSCAN-ELISA)” value worked out at 0.3, the “Binding of serum London to looped/cyclic peptide (PEPSCAN-ELISA)” value is given as 0.2 and the “Binding of serum SARS-green to looped/cyclic peptide (PEPSCAN-ELISA)” value is 0.1. Further, in test [1], the “Binding of serum SARS-yellow to looped/cyclic peptide (PEPSCAN-ELISA)” value is on record as 0.2; the “Recognition of the peptide by sera of SARS-CoV infected individuals, and form (linear, looped/cyclic) in which it is recognized” value was “recognized in linear form”. In test [2], the “Binding of Control Serum Blood-Bank to Looped peptides” value was 0.2, the “Binding of Control serum Blood-bank to linear peptides” value is given as 0.9, the “Binding of Control serum LUMC to linear peptides” value is on record as 0.8 and the “Binding of Control serum LUMC to looped peptides” value stood at 0.4. In test [3], the “Binding of a rabbit serum to linear peptides” value was 0.1 and the “Binding of a rabbit serum to looped peptides” value worked out at 0.5.
